Experimental data from ChEMBL document CHEMBL3988442, “University of Dundee, Small-Polar-MMV Screening Library” (2021).
“And” between values parts separate entries of the source, which are not always exact repeats. Equal values may be shown once.

Key:
[1] = microbe, parasite or virus in culture; conditions: Mycobacterium tuberculosis, 96 h, read-out: pIC50 (converted)
Histidine--tRNA ligase [2] = target: T1, Histidine--tRNA ligase (Leishmania infantum, UniProt A4I591); experiment: Leishmania infantum Histidine tRNA synthetase (LdHisRS); format: functional
T1 sequence (A4I591 whole entry): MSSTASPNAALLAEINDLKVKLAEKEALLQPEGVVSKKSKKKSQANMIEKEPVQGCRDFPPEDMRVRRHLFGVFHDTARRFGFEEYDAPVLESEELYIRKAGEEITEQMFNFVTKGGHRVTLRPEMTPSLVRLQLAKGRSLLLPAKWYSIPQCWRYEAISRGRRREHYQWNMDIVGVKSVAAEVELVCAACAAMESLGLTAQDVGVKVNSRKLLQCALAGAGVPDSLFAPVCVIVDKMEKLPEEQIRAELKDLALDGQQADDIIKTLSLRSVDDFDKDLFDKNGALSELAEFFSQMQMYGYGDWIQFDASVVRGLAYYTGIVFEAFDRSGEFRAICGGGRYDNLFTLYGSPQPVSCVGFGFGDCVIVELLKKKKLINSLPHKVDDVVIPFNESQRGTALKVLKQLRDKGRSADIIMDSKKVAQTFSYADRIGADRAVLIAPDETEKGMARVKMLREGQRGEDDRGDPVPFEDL

[3] = microbe, parasite or virus in culture; conditions: Mycobacterium tuberculosis, 72 h, read-out: pIC50 (converted)
Histidine--tRNA ligase [4] = target: T2, Histidine--tRNA ligase (Trypanosoma cruzi (strain CL Brener), UniProt Q4DA54); experiment: Trypanosoma cruzi histidyl tRNA synthetase (Tc-HisRS); format: functional
T2 sequence (Q4DA54 whole entry): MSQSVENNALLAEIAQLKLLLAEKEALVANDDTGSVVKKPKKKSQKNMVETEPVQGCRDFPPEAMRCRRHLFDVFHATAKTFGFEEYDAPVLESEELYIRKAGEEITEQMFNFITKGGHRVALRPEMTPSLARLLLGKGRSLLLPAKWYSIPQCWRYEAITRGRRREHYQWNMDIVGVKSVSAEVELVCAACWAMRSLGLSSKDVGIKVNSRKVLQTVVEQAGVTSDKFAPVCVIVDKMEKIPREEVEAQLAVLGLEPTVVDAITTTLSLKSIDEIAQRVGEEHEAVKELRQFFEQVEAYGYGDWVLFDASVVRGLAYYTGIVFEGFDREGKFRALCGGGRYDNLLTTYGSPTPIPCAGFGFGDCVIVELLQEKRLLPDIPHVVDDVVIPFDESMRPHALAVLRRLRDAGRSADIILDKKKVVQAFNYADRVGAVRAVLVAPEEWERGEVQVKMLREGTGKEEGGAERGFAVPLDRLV

Plasmodium falciparum = experiment: Calibr Malaria Delayed Death Assay SOP; format: functional, organism-based

For `O=C(NCc1cnn2cccnc12)c1cccc(CC2CCNCC2)c1`, the IC50 [1] was 45.6 µM, the IC50 (Histidine--tRNA ligase [2]) was 17.6 µM and 18.9 µM and the IC50 [3] was 41.5 µM. For the same molecule, the IC50 (Histidine--tRNA ligase [4]) was 39.3 µM and 21.3 µM.

`O=C1N(CC2CC2)CCC12CCN(c1ncccn1)CC2` gave an IC50 (Histidine--tRNA ligase [4]) of over 100 µM.

Work on `Cc1noc(C)c1CN(C)CC1CCCN1c1cccnn1` (centres undefined) yielded an IC50 (Histidine--tRNA ligase [4]) of over 100 µM.

Work on `CN1CCN2CCN(Cc3cnc(NCc4ccccc4)nc3)CC2C1` (centres undefined) yielded an IC50 (Histidine--tRNA ligase [4]) of over 100 µM.

With `CC(C)n1ccnc1CNC(=O)c1cccc(CCC(C)(C)O)c1` the IC50 (Histidine--tRNA ligase [4]) was over 100 µM.

`CN(C)[C@H]1CCCCN(Cc2cnc(NCc3ccccc3)nc2)C1` showed an IC50 (Histidine--tRNA ligase [4]) of over 100 µM.

`Fc1cc(F)cc(CN2CCC(c3cc4ncccc4cn3)CC2)c1` showed an IC50 (Histidine--tRNA ligase [4]) of over 100 µM.

With `COCCc1noc(CNC2CCCN(c3cccnn3)C2)n1` (centres undefined) the IC50 (Histidine--tRNA ligase [4]) was over 100 µM.

`Cc1ccc(N2CCCC3(COCCN(c4cnccn4)C3)C2)nn1` (centres undefined) showed an IC50 (Histidine--tRNA ligase [4]) of over 100 µM.

Work on `O=C(O)c1ccc(Cc2cccc(F)c2)nc1` yielded an IC50 (Histidine--tRNA ligase [4]) of over 100 µM.

Molecule `c1cnnc(N2CCCC(NCc3nc(-c4cccs4)no3)C2)c1` (centres undefined) has an IC50 (Histidine--tRNA ligase [4]) of over 100 µM.

With `COc1ccc(C)cc1CN1CCC(c2cc3ncccc3cn2)CC1.Cl` the IC50 [1] was 25.8 µM, the IC50 (Histidine--tRNA ligase [2]) was 17.6 µM and 23.6 µM and the IC50 [3] was 19.4 µM. For the same molecule, the IC50 (Histidine--tRNA ligase [4]) was 14.5 µM and 14.6 µM, the pIC50 (Plasmodium falciparum) was 6.624 and the IC50 (Plasmodium falciparum; Plasmodium falciparum) was 0.264 µM.

With `Cc1nc(C)n(CC2CCCN2Cc2nc(C)c3ccccc3n2)n1` (centres undefined) the IC50 (Histidine--tRNA ligase [2]) was 31 µM and 34.3 µM and the IC50 (Histidine--tRNA ligase [4]) was 30.1 µM and 20 µM.

For `CCCn1cc(NC(=O)c2ccc(NC(=O)NC3CC3)cc2)ccc1=O`, the IC50 (Histidine--tRNA ligase [2]) was 5.84 µM and 7.08 µM and the IC50 (Histidine--tRNA ligase [4]) was 4.75 µM and 4.19 µM.

For `Nc1cc(-c2nccnc2N2CCCC2)c2cc[nH]c2n1`, the IC50 (Histidine--tRNA ligase [4]) was 64.4 µM and 75.3 µM.

`CN(Cc1nc(N)c2ccccc2n1)CC1CCCN1c1cccnn1` (centres undefined) gave an IC50 (Histidine--tRNA ligase [4]) of over 100 µM.

Molecule `Cc1nn(-c2ccccc2Cl)c(C)c1CCC(=O)NCCS(C)(=O)=O` has an IC50 (Histidine--tRNA ligase [4]) of over 100 µM.

With `COC(=O)c1ccc(CNC(=O)Nc2ccc(=O)n(C)c2)cc1` the IC50 (Histidine--tRNA ligase [2]) was 1.41 µM and 1.19 µM and 3.2 µM and 2.68 µM and the IC50 (Histidine--tRNA ligase [4]) was 3.6 µM and 3.34 µM.

For `Fc1ccc(F)c(CN2CCC(c3cnccn3)CC2)c1`, the IC50 (Histidine--tRNA ligase [4]) was over 100 µM.

Molecule `Cc1ccc(N2CCCC3(COCCN(c4ncccn4)C3)C2)nn1` (centres undefined) has an IC50 (Histidine--tRNA ligase [4]) of over 100 µM.

With `Cc1ccc(N2CCC3(CC2)COCCN(c2nccs2)C3)nn1` the IC50 (Histidine--tRNA ligase [2]) was 33.4 µM and 28.7 µM and the IC50 (Histidine--tRNA ligase [4]) was 96.2 µM and 98.9 µM.

With `Cc1nc2ccccc2nc1CN(C)C1CCCN(c2cccnn2)C1` (centres undefined) the IC50 (Histidine--tRNA ligase [4]) was over 100 µM.

`CCCn1cc(NC(=O)c2ccc(N(C)CC)cc2)ccc1=O` showed an IC50 (Histidine--tRNA ligase [4]) of over 100 µM.

For `CNC1CCN(C2CCN(c3ccc(-c4ccco4)cc3)CC2)CC1`, the IC50 [1] was over 50.1 µM, the IC50 [3] was 24.6 µM and the IC50 (Histidine--tRNA ligase [4]) was 65.7 µM and 43.8 µM.

`CCCn1cc(NC(=O)c2cccnc2O)ccc1=O` gave an IC50 (Histidine--tRNA ligase [4]) of over 100 µM.

In the case of `OCCNc1cc(-c2nccnc2N2CCCC2)c2cc[nH]c2n1`, the IC50 (Histidine--tRNA ligase [2]) is reported as 16.2 µM and 14.9 µM and the IC50 (Histidine--tRNA ligase [4]) is reported as 32.6 µM and 31 µM.

Work on `Cc1ccc(N2CCCC3(COCCN(c4ccccn4)C3)C2)nn1` (centres undefined) yielded an IC50 (Histidine--tRNA ligase [4]) of over 100 µM.

In the case of `Cc1ccc(N2CCOCC3(CCCN(c4ncc(F)cn4)C3)C2)nn1` (centres undefined), the IC50 (Histidine--tRNA ligase [4]) is reported as over 100 µM.

`Cc1ccc(N2CCCC3(COCCN(c4nccs4)C3)C2)nn1` (centres undefined) showed an IC50 (Histidine--tRNA ligase [4]) of over 100 µM.

In the case of `CC1CCN(c2ccc(C(=O)N3CCCC3c3nncn3C)cn2)CC1` (centres undefined), the IC50 (Histidine--tRNA ligase [4]) is reported as over 100 µM.

`O=C1N(CC2CCCC2)CCC12CCN(c1ncc(F)cn1)CC2` showed an IC50 (Histidine--tRNA ligase [4]) of over 100 µM.

`Cc1nc(C)n(CC2CCCN2Cc2nc3ccccc3n2C)n1` (centres undefined) showed an IC50 (Histidine--tRNA ligase [4]) of over 100 µM.

In the case of `Cc1cc(=O)n(C)cc1NC(=O)Cc1ccc(C(F)(F)F)cc1`, the IC50 (Histidine--tRNA ligase [2]) is reported as 6.69 µM and 5.43 µM and the IC50 (Histidine--tRNA ligase [4]) is reported as 5.22 µM and 5.49 µM.

With `Cn1cc(NC(=O)N2CCCC2c2cccnc2)ccc1=O` (centres undefined) the IC50 (Histidine--tRNA ligase [2]) was 5.84 µM and 5.74 µM and the IC50 (Histidine--tRNA ligase [4]) was 5.39 µM and 6.42 µM.

`CC(C)(O)CCc1cccc(C(=O)NCc2nccs2)c1` showed an IC50 (Histidine--tRNA ligase [4]) of over 100 µM.

`O=C(O)c1cncc(Cc2cccc(F)c2)c1` gave an IC50 (Histidine--tRNA ligase [4]) of over 100 µM.

In the case of `CCN(CC)CCNC(=O)CCc1c(C)nn(-c2ccccc2Br)c1C`, the IC50 (Histidine--tRNA ligase [4]) is reported as over 100 µM.

For `Cc1nc2ccccc2nc1CN(C)CC1CCCN1c1cccnn1` (centres undefined), the IC50 (Histidine--tRNA ligase [4]) was 90.5 µM and 50.8 µM.

For `Cc1nc(CN(C)CC2CCCN2c2cccnn2)nc2ccccc12` (centres undefined), the IC50 [1] was over 50.1 µM, the IC50 (Histidine--tRNA ligase [2]) was 11.8 µM and 14.8 µM and the IC50 [3] was 10.8 µM. The IC50 (Histidine--tRNA ligase [4]) was 30.3 µM and 27.2 µM.

`Cc1ccc(N2Cc3c(CN(C)C)nn(C)c3C2)nn1` gave an IC50 (Histidine--tRNA ligase [4]) of over 100 µM.

For `Cc1cc(CNC2CCCN(c3cccnn3)C2)no1` (centres undefined), the IC50 (Histidine--tRNA ligase [4]) was over 100 µM.

For `O=C(O)c1ccccc1-c1ccc(CN2CC(c3ccncn3)C2)o1`, the IC50 (Histidine--tRNA ligase [4]) was 52.3 µM and 57.8 µM.

With `COc1cccn(CC(=O)N2CCCC3(CCOCC3)C2)c1=O` the IC50 (Histidine--tRNA ligase [2]) was over 100 µM and the IC50 (Histidine--tRNA ligase [4]) was 5.31 µM and 6.94 µM.
